Reference: patent US20230167122A1, “PESTICIDALLY ACTIVE HETEROCYCLIC DERIVATIVES WITH SULFUR CONTAINING SUBSTITUENTS” (SYNGENTA CROP PROTECTION AG, priority 2020, published 2023)

Columns and labels:
Format in all cases: in vivo
[1] = test system: Euschistus heros (Neotropical Brown Stink Bug); assay: Example B3: Activity against Euschistus heros (neotropical brown stink bug), sprayed soybean leaf; details: 120 h, application rate of 200 ppm, N-2 nymphs on soybean leaf, 5 days after infestation, read-out: effect in at least one of the two categories (mortality or growth inhibition)
Experimental: Example B3: Activity Against Euschistus heros (Neotropical Brown Stink Bug)
Soybean leaf on agar in 24-well microtiter plates were sprayed with aqueous test solutions prepared from 10′000 ppm DMSO stock solutions. After drying the leaf were infested with N-2 nymphs. The samples were assessed for mortality and growth inhibition in comparison to untreated samples 5 days after infestation.

[2] = test system: Bemisia tabaci (Cotton White Fly); assay: Example B1: Activity against Bemisia tabaci (cotton white fly), sprayed cotton leaf discs; details: foliar, 144 h, application rate of 200 ppm, adult white flies on cotton leaf discs, 6 days after incubation
Experimental: Example B1: Activity Against Bemisia tabaci (Cotton White Fly)
Cotton leaf discs were placed on agar in 24-well microtiter plates and sprayed with aqueous test solutions prepared from 10′000 ppm DMSO stock solutions. After drying the leaf discs were infested with adult white flies. The samples were checked for mortality 6 days after incubation.

[3] = test system: Diabrotica balteata (Corn Root Worm); assay: Example B2: Activity against Diabrotica balteata (corn root worm), sprayed maize sprouts; details: 96 h, application rate of 200 ppm, L2 larvae on maize sprouts, 4 days after infestation, read-out: effect in at least one of the two categories (mortality or growth inhibition)
Experimental: Example B2: Activity Against Diabrotica balteata (Corn Root Worm)
Maize sprouts placed onto an agar layer in 24-well microtiter plates were treated with aqueous test solutions prepared from 10′000 ppm DMSO stock solutions by spraying. After drying, the plates were infested with L2 larvae (6 to 10 per well). The samples were assessed for mortality and growth inhibition in comparison to untreated samples 4 days after infestation.

[4] = test system: Spodoptera littoralis (Egyptian Cotton Leaf Worm); assay: Example B9: Activity against Spodoptera littoralis (Egyptian cotton leaf worm), sprayed cotton leaf discs; details: foliar, 72 h, application rate of 200 ppm, L1 larvae on cotton leaf discs, 3 days after infestation
Experimental: Example B9: Activity Against Spodoptera littoralis (Egyptian Cotton Leaf Worm)
Cotton leaf discs were placed onto agar in 24-well microtiter plates and sprayed with aqueous test solutions prepared from 10′000 ppm DMSO stock solutions. After drying the leaf discs were infested with five L1 larvae. The samples were assessed for mortality, anti-feeding effect, and growth inhibition in comparison to untreated samples 3 days after infestation. Control of Spodoptera littoralis by a test sample is given when at least one of the categories mortality, anti-feedant effect, and growth inhibition is higher than the untreated sample.

[5] = test system: Plutella xylostella (Diamond Back Moth); assay: Example B5: Activity against Plutella xylostella (diamond back moth), eggs, artificial diet; details: 192 h, application rate of 200 ppm, 8 days after infestation, read-out: effect in at least one of the two categories (mortality or growth inhibition)
Experimental: Example B5: Activity Against Plutella xylostella (Diamond Back Moth)
24-well microtiter plates with artificial diet were treated with aqueous test solutions prepared from 10′000 ppm DMSO stock solutions by pipetting. After drying, Plutella eggs were pipetted through a plastic stencil onto a gel blotting paper and the plate was closed with it. The samples were assessed for mortality and growth inhibition in comparison to untreated samples 8 days after infestation.

[6] = test system: Myzus persicae (Green Peach Aphid); assay: Example B6: Activity against Myzus persicae (green peach aphid), sprayed sunflower leaf discs; details: foliar, 144 h, application rate of 200 ppm, aphid population of mixed ages on sunflower leaf discs, 6 days after infestation
Experimental: Example B6: Activity Against Myzus persicae (Green Peach Aphid)
Sunflower leaf discs were placed on agar in a 24-well microtiter plate and sprayed with aqueous test solutions prepared from 10′000 ppm DMSO stock solutions. After drying, the leaf discs were infested with an aphid population of mixed ages. The samples were assessed for mortality 6 days after infestation.

[7] = test system: Frankliniella occidentalis (Western Flower Thrips); assay: Example B4: Activity against Frankliniella occidentalis (western flower thrips), sprayed sunflower leaf discs; details: foliar, 168 h, application rate of 200 ppm, population of mixed ages on sunflower leaf discs, 7 days after infestation
Experimental: Example B4: Activity Against Frankliniella occidentalis (Western Flower Thrips)
Sunflower leaf discs were placed on agar in 24-well microtiter plates and sprayed with aqueous test solutions prepared from […] stock solutions. After drying the leaf discs were infested with a Frankliniella population of mixed ages. The samples were assessed for mortality 7 days after infestation.

[8] = test system: Plutella xylostella (Diamond Back Moth); assay: Example B8: Activity against Plutella xylostella (diamond back moth), L2 larvae, artificial diet; details: 120 h, application rate of 200 ppm, 5 days after infestation, read-out: effect in at least one of the two categories (mortality or growth inhibition)
Experimental: Example B8: Activity Against Plutella xylostella (Diamond Back Moth)
24-well microtiter plates with artificial diet were treated with aqueous test solutions prepared from 10′000 ppm DMSO stock solutions by pipetting. After drying, the plates were infested with L2 larvae (10 to 15 per well). The samples were assessed for mortality and growth inhibition in comparison to untreated samples 5 days after infestation.

[9] = test system: Tetranychus urticae (Two-Spotted Spider Mite); assay: Example B10: Activity against Tetranychus urticae (two-spotted spider mite), sprayed bean leaf discs; details: foliar, 192 h, application rate of 200 ppm, mixed population (mobile stages) on bean leaf discs, 8 days after infestation
Experimental: Example B10: Activity Against Tetranychus urticae (Two-Spotted Spider Mite)
Bean leaf discs on agar in 24-well microtiter plates were sprayed with aqueous test solutions prepared from 10′000 ppm DMSO stock solutions. After drying the leaf discs were infested with a mite population of mixed ages. The samples were assessed for mortality on mixed population (mobile stages) 8 days after infestation.

[10] = test system: Nilaparvata lugens (Brown Plant Hopper); assay: Example B11: Activity against Nilaparvata lugens (brown plant hopper), larvicide, feeding/contact; details: 168 h, application rate of 50 ppm, N3 nymphs on sprayed rice plants, 7 days after the treatment
Experimental: Example B11: Activity Against Nilaparvata lugens (Brown Plant Hopper) Larvicide, Feeding/Contact
Rice plants were treated with the diluted test solutions in a spray chamber. After drying plants were infested with ˜20 N3 nymphs. 7 days after the treatment samples were assessed for mortality and growth regulation.

[11] = test system: Nilaparvata lugens (Brown Plant Hopper); assay: Example B12: Activity against Nilaparvata lugens (brown plant hopper), larvicide, systemic into water; details: 168 h, application rate of 12.5 ppm, systemic into nutritive solution, rice plants, N3 nymphs, 7 days after infestation
Experimental: Example B12: Activity Against Nilaparvata lugens (Brown Plant Hopper) Larvicide, Systemic into Water
Rice plants cultivated in a nutritive solution were treated with the diluted test solutions into nourishing cultivation system. 1 day after application plants were infested with ˜20 N3 nymphs. 7 days after infestation samples were assessed for mortality and growth regulation.

CCS(=O)(=O)c1cc(OC(C)(C)C#N)cnc1-c1nc2cc(C(F)(F)F)cnc2n1C [Compound P3, 2-[[5-ethylsulfonyl-6-[3-methyl-6-(trifluoromethyl)imidazo[4,5-b]pyridin-2-yl]-3-pyridyl]oxy]-2-methyl-propanenitrile]
≥ 80%: percent effect (mortality or growth inhibition) at 200 ppm [1] | mortality at 200 ppm [2] | percent effect (mortality or growth inhibition) at 200 ppm [3] | percent control (mortality, anti-feedant effect or growth inhibition) at 200 ppm [4] | percent effect (mortality or growth inhibition) at 200 ppm [5] | mortality at 200 ppm [6] | mortality at 200 ppm [7]

CCn1c(C(F)(F)F)cc2nc(-c3ncc(OC(C)(C)C#N)cc3S(=O)(=O)CC)n(C)c2c1=O [Compound P6, 2-[[6-[5-ethyl-3-methyl-4-oxo-6-(trifluoromethyl)imidazo[4,5-c]pyridin-2-yl]-5-ethylsulfonyl-3-pyridyl]oxy]-2-methyl-propanenitrile]
≥ 80%: percent effect (mortality or growth inhibition) at 200 ppm [1] | mortality at 200 ppm [2] | percent effect (mortality or growth inhibition) at 200 ppm [3] | percent control (mortality, anti-feedant effect or growth inhibition) at 200 ppm [4] | mortality at 200 ppm [6] | percent effect (mortality or growth inhibition) at 200 ppm [8] | mortality at 200 ppm [7]

CCS(=O)(=O)c1cc(OC(C)(C)C#N)cnc1-c1nc2cc(C(F)(F)F)n(C3CC3)c(=O)c2n1C [Compound P7, 2-[[6-[5-cyclopropyl-3-methyl-4-oxo-6-(trifluoromethyl)imidazo[4,5-c]pyridin-2-yl]-5-ethylsulfonyl-3-pyridyl]oxy]-2-methyl-propanenitrile]
≥ 80%: percent effect (mortality or growth inhibition) at 200 ppm [1] | percent effect (mortality or growth inhibition) at 200 ppm [3] | percent control (mortality, anti-feedant effect or growth inhibition) at 200 ppm [4] | percent effect (mortality or growth inhibition) at 200 ppm [8] | mortality at 200 ppm [7]

CCS(=O)(=O)c1cc(OC(C)(C)C#N)cnc1-c1cn2ccc(C(F)(F)F)cc2n1 [Compound P8, 2-[[5-ethylsulfonyl-6-[7-(trifluoromethyl)imidazo[1,2-a]pyridin-2-yl]-3-pyridyl]oxy]-2-methyl-propanenitrile]
≥ 80%: mortality at 200 ppm [9] | percent effect (mortality or growth inhibition) at 200 ppm [1] | percent effect (mortality or growth inhibition) at 200 ppm [3] | percent control (mortality, anti-feedant effect or growth inhibition) at 200 ppm [4] | mortality at 200 ppm [6] | percent effect (mortality or growth inhibition) at 200 ppm [8] | mortality at 200 ppm [7]

CCS(=O)(=O)c1cc(OC(C)(C)C#N)cnc1-c1cn2ncc(C(F)(F)F)cc2n1 [Compound P9, 2-[[5-ethylsulfonyl-6-[7-(trifluoromethyl)imidazo[1,2-b]pyridazin-2-yl]-3-pyridyl]oxy]-2-methyl-propanenitrile]
≥ 80%: mortality at 200 ppm [2] | mortality at 50 ppm [10] | percent effect (mortality or growth inhibition) at 200 ppm [3] | percent control (mortality, anti-feedant effect or growth inhibition) at 200 ppm [4] | mortality at 12.5 ppm [11] | mortality at 200 ppm [6] | percent effect (mortality or growth inhibition) at 200 ppm [8] | mortality at 200 ppm [7]

CCS(=O)(=O)c1cc(OC(C)(C)C#N)ccc1-n1cc2cnc(C(F)(F)F)cc2n1 [Compound P10, 2-[3-ethylsulfonyl-4-[6-(trifluoromethyl)pyrazolo[4,3-c]pyridin-2-yl]phenoxy]-2-methyl-propanenitrile]
≥ 80%: mortality at 200 ppm [9] | percent effect (mortality or growth inhibition) at 200 ppm [1] | mortality at 200 ppm [2] | mortality at 50 ppm [10] | percent effect (mortality or growth inhibition) at 200 ppm [3] | percent control (mortality, anti-feedant effect or growth inhibition) at 200 ppm [4] | mortality at 12.5 ppm [11] | mortality at 200 ppm [6] | percent effect (mortality or growth inhibition) at 200 ppm [8] | mortality at 200 ppm [7]

CCS(=O)(=O)c1cc(OC(C)(C)C#N)ccc1-c1nc2cc(C(F)(F)F)nnc2n1C [Compound P12, 2-[3-ethylsulfonyl-4-[7-methyl-3-(trifluoromethyl)imidazo[4,5-c]pyridazin-6-yl]phenoxy]-2-methyl-propanenitrile]
≥ 80%: percent effect (mortality or growth inhibition) at 200 ppm [1] | mortality at 200 ppm [2] | percent effect (mortality or growth inhibition) at 200 ppm [3] | percent control (mortality, anti-feedant effect or growth inhibition) at 200 ppm [4] | mortality at 200 ppm [6] | percent effect (mortality or growth inhibition) at 200 ppm [8] | mortality at 200 ppm [7]

CCS(=O)(=O)c1cc(OC(C)(C)C#N)cnc1-c1nc2cc(SC(F)(F)F)ccc2n1C [Compound P13, 2-[[5-ethylsulfonyl-6-[1-methyl-5-(trifluoromethylsulfanyl)benzimidazol-2-yl]-3-pyridyl]oxy]-2-methyl-propanenitrile]
≥ 80%: percent effect (mortality or growth inhibition) at 200 ppm [1] | mortality at 200 ppm [2] | percent effect (mortality or growth inhibition) at 200 ppm [3] | percent control (mortality, anti-feedant effect or growth inhibition) at 200 ppm [4] | percent effect (mortality or growth inhibition) at 200 ppm [5] | mortality at 200 ppm [6] | mortality at 200 ppm [7]

CCS(=O)(=O)c1cc(OC(C)(C)C#N)cnc1-c1nc2cc(S(=O)(=O)C(F)(F)F)ccc2n1C [Compound P14, 2-[[5-ethylsulfonyl-6-[1-methyl-5-(trifluoromethylsulfonyl)benzimidazol-2-yl]-3-pyridyl]oxy]-2-methyl-propanenitrile]
≥ 80%: percent effect (mortality or growth inhibition) at 200 ppm [1] | mortality at 200 ppm [2] | percent effect (mortality or growth inhibition) at 200 ppm [3] | percent control (mortality, anti-feedant effect or growth inhibition) at 200 ppm [4] | percent effect (mortality or growth inhibition) at 200 ppm [5] | mortality at 200 ppm [6] | mortality at 200 ppm [7]
